Measurements published in ChEMBL document CHEMBL3351284, “Internalization and stability of a thymidylate synthase Peptide inhibitor in ovarian cancer cells” (J Med Chem, 2014).
Activity calls are given as the source filed them. No cut-off for these calls is given here.

Test system: C13
Experiment: Growth inhibition of cisplatin-resistant human C13 cells at 5 uM after 72 hrs by flow-cytometric analysis
Type: functional, cell-based

## O=c1[nH]cc(F)c(=O)[nH]1
  growth inhibition (GI): Active
